These are literature values, as cited in PMC3517478 (BMC Neurology, 2012).

The test system of series [1] is transgenic mice (tg271Q-300). Conditions: 15 mg/kg i.p.; cited from earlier work.
In series [2] the test system is startle mutations of the glycine receptor. Conditions: propofol 1–500 μM; Xenopus laevis oocytes; cited from earlier work.

Consider `CC(C)c1cccc(C(C)C)c1O` [propofol], for which the “effect on startle symptoms (righting time, tremor)” value in series [1] is “decreased righting time and abatements in tremor without sedative side effects”. Further, the “effect on glycine induced maximal response” value in series [2] is “increases the glycine induced maximal response”.
